This is an account of results in US10604509B2, “Nrf2 regulators” (GlaxoSmithKline Intellectual Property Development Limited, priority 2015, dated 2020).

For the test, the system named is NQO1 specific enzyme activity in BEAS-2B cells. Description: BEAS-2B NQO1 MTT assay. Particulars: BEAS-2B cells, 48 hours with compound, MTT readout, read-out: EC50 of NQO1 specific activity induction. The class given is cell-based. In short, it runs like this:
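NQO1 specific activity, an NRF2 activation marker, read kinetically as absorbance change at 570 nm for 30 min after MTT cocktail addition to crude lysates of BEAS-2B cells exposed 48 h to compound. Three-parameter fit of Delta OD/min against log concentration gives EC50; lysate portion used for Cell Titer Glo.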
For orientation: Tetrazolium dyes change colour on reduction, which living cells bring about.

Each structure is given as a SMILES string. Counter-ions that a name gives are not always drawn. Like-named read-outs stand apart in the source and are kept apart here.

For orientation: EC50 means the concentration needed to bring the measured effect to its halfway point. With `CC[C@@H]1CN(Cc2cc([C@H](CC(=O)O)c3ccc4c(nnn4C)c3C)ccc2C)Cc2ncccc2O1` [Example 258, (S)-3-(1,4-dimethyl-1H-benzo[d][1,2,3]triazol-5-yl)-3-(3-(((R)-2-ethyl-2.3-dihydropyrido[2,3-f][1,4]oxazepin-4(5H)-yl)methyl)-4-methylphenyl)propionic Acid], the EC50 (Homo sapiens) lay within 10 to 100 nM. With `CCC1CCN(Cc2nccn2Cc2cc(C(CCc3cn(CC)nn3)C(C)(C)C(=O)O)ccc2C)CC1` (single isomer, unassigned) [Example 249, 5-(1-ethyl-1H-1,2,3-triazol-4-yl)-3-(3-((2-((4-ethylpiperidin-1-yl)methyl)-1H-imidazol-1-yl)methyl)-4-methylphenyl)-2,2-dimethylpentanoic Acid], the EC50 lay within 1 to 10 nM. Take `Cc1ccc([C@@H](c2ccc3c(nnn3C)c2C)C(C)(C)C(=O)O)cc1CN1CCC[C@@H](n2cccn2)C1` [compound 184, (S)-3-(3-(((R)-3-(1H-Pyrazol-1-yl)piperidin-1-yl)methyl)-4-methylphenyl)-3-(1,4-dimethyl-1H-benzo[d][1,2,3]triazol-5-yl)-2,2-dimethylpropanoic acid]: the concentration for a half-maximal effect (EC50) (Homo sapiens, BEAS-2B, 48 h) was 100 to 1000 nM. On to `CC[C@@H]1CN(Cc2cc([C@H](c3ccc4c(nnn4CC)c3C)[C@H](C)C(=O)O)ccc2C)Cc2ccccc2O1` [Example 101, Ammonium (2S,3R)-3-(3-(((R)-2-ethyl-2,3-dihydrobenzo[f][1,4]oxazepin-4(5H)-yl)methyl)-4-methylphenyl)-3-(1-ethyl-4-methyl-1H-benzo[d][1,2,3]triazol-5-yl)-2-methylpropanate], for which the EC50 is less than 1 nM.

Turning to `CC[C@@H]1CN(Cc2cc([C@@H](c3ccc4c(nnn4C)c3C)C(C)(C)C(=O)OCOP(=O)(O)Oc3ccccc3)ccc2C)Cc2cnccc2O1` [Example 254], the EC50 (Homo sapiens) lay in the range of 1 to 10 nM. For the compound `Cc1ccc([C@@H](c2ccc3c(nnn3C)c2C)C(C)(C)C(=O)O)cc1Cn1ccnc1CN1CCCCC1` [Example 150, (S)-3-(1,4-Dimethyl-1H-benzo[d][1,2,3]triazol-5-yl)-2,2-dimethyl-3-(4-methyl-3-((2-(piperidin-1-ylmethyl)-1H-imidazol-1-yl)methyl)phenyl) propanoic acid], the EC50 (Homo sapiens, BEAS-2B, 48 h) was less than 1 nM. The same measure, in the same setting: with `CC[C@@H]1CN(Cc2cc([C@@H](CC(=O)O)c3ccc4c(nnn4C)c3C)ccc2C)Cc2cnccc2O1` [Example 43, (R)-3-(1,4-Dimethyl-1H-benzo[d][1,2,3]triazol-5-yl)-3-(3-(((R)-2-ethyl-2,3-dihydropyrido[3,4-f][1,4]oxazepin-4(5H)-yl)methyl)-4-methylphenyl)propanoic Acid, Formic Acid Salt] the figure was 1000 to 10000 nM; with `CCn1nnc2c(Cl)c([C@H](CC(=O)O)c3ccc(C)c(CN4Cc5ccccc5OC(C)(C)C4)c3)ccc21` [Example 55, (R)-3-(4-Chloro-1-ethyl-1H-benzo[d][1,2,3]triazol-5-yl)-3-(3-((2,2-dimethyl-2,3-dihydrobenzo[f][1,4]oxazepin-4(5H)-yl)methyl)-4-methylphenyl)propanoate, Sodium salt], 10 to 100 nM; with `CC[C@@H]1CN(Cc2cc([C@@H](c3ccc4c(nnn4C)c3C)C(C)(C)C(=O)O)ccc2C)Cc2ccccc2O1` [Example 26, (S)-3-(1,4-Dimethyl-1H-benzo[d][1,2,3]triazol-5-yl)-3-(3-(((R)-2-ethyl-2,3-dihydrobenzo[f][1,4]oxa-zepin-4(5H)-yl)methyl)-4-methylphenyl)-2,2-dimethylpropanoic acid, trifluoroacetic acid salt], 1 to 10 nM. On the same count and under the same terms, with `CC[C@@H]1CN(Cc2cc([C@H](c3ccc4c(nnn4C)c3C)C(C)(C)C(=O)O)ccc2C)Cc2ccccc2O1` [Example 27, (R)-3-(1,4-Dimethyl-1H-benzo[d][1,2,3]triazol-5-yl)-3-(3-(((R)-2-ethyl-2,3-dihydrobenzo[f][1,4]oxa-zepin-4(5H)-yl)methyl)-4-methylphenyl)-2,2-dimethylpropanoic acid] the figure was 100 to 1000 nM. For the compound `CCC1CCN(Cc2nccn2Cc2cc(C(CCc3cn(CC)nn3)C(C)(C)C(=O)O)ccc2C)CC1` (single isomer, unassigned) [Example 250, 5-(1-ethyl-1H-1,2,3-triazol-4-yl)-3-(3-((2-((4-ethylpiperidin-1-yl)methyl)-1H-imidazol-1-yl)methyl)-4-methylphenyl)-2,2-dimethylpentanoic acid], the EC50 fell in the range of 10 to 100 nM. Turning to `Cc1c(C(CC(=O)O)c2ccc(F)c(CN3Cc4ccccc4O[C@@H](C)C3)c2)ccc2c1nnn2C` (stereo partly drawn) [Example 95, 3-(1,4-Dimethyl-1H-benzo[d][1,2,3]triazol-5-yl)-3-(4-fluoro-3-(((S)-2-methyl-2,3-dihydrobenzo[f][1,4]oxazepin-4(5H)-yl)methyl)phenyl)propanoic Acid, Formic Acid Salt], the concentration giving a half-maximal response (EC50) (Homo sapiens, BEAS-2B, 48 h) was in the range of 100 to 1000 nM. As for `Cc1ccc(C(CC(=O)O)c2ccc3c(nnn3C)c2C)cc1CN1Cc2ncccc2OC(C)(C)C1` (stereo in doubt) [Example 170, (S)-3-(1,4-Dimethyl-1H-benzo[d][1,2,3]triazol-5-yl)-3-(3-((2,2-dimethyl-2,3-dihydropyrido[2,3-f][1,4]oxazepin-4(5H)-yl)methyl)-4-methylphenyl)propanoic acid, 0.5 Formlc acid salt], the EC50 fell in the range of 10 to 100 nM. In the case of `CCC1CN(Cc2cc(C(CC(=O)O)c3ccc4c(nnn4C)c3C)ccc2C)Cc2ccc(Br)cc2O1` (stereo not drawn) [Example 82, 3-(3-((8-Bromo-2-ethyl-2,3-dihydrobenzo[f][1,4]oxazepin-4(5H)-yl)methyl)-4-methylphenyl)-3-(1,4-dimethyl-1H-benzo[d]-[1,2,3]triazol-5-yl)propanoic acid], the EC50 (Homo sapiens, BEAS-2B, 48 h) is 10 to 100 nM. The same measure, in the same setting: with `CC[C@@H]1CN(Cc2cc(C(CCc3cn(CC)nn3)CC(=O)O)ccc2C)Cc2cnccc2O1` (stereo partly drawn) [Example 232, 5-(1-Ethyl-1H-1,2,3-triazol-4-yl)-3-(3-(((R)-2-ethyl-2,3-dihydropyrido[3,4-f][1,4]oxazepin-4(5H)-yl)methyl)-4-methylphenyl)pentanoic Acid] the figure was 100 to 1000 nM. On the same count and under the same terms, with `CCn1nnc2c(C)c([C@H](c3ccc(C)c(Cn4ccnc4CN4CCCCC4)c3)[C@@H](C)C(=O)O)ccc21` [Example 210, (2R,3S)-3-(1-Ethyl-4-methyl-1H-benzo[d][1,2,3]triazol-5-yl)-2-methyl-3-(4-methyl-3-((2-(piperidin-1-ylmethyl)-1H-imidazol-1-yl)methyl)phenyl)propanoic Acid] the figure was 10 to 100 nM; with `Cc1ccc(C(c2ccc3c(nnn3C)c2C)C(C)(C)C(=O)O)cc1Cn1ccnc1CC1CCOCC1` (stereo not drawn) [Example 145, 3-(1,4-Dimethyl-1H-benzo[d][1,2,3]triazol-5-yl)-2,2-dimethyl-3-(4-methyl-3-((2-((tetrahydro-2H-pyran-4-yl)methyl)-1H-imidazol-1-yl)methyl)phenyl) propanoic acid, trifluoroacetic acid salt], 100 to 1000 nM. On the same count and under the same terms, then `Cc1ccc(C(CC(=O)O)c2ccc3c(nnn3C)c2C)cc1CN(C)Cc1ccccc1Br` (stereo not drawn) [Example 15, Ammonium 3-(3-(((2-bromobenzyl)(methyl)amino)methyl)-4-methylphenyl)-3-(1,4-dimethyl-1H-benzo[d][1,2,3]triazol-5-yl)propanoate], with 1000 to 10000 nM. With `Cc1ccc(C(CC(=O)O)c2ccc3c(nnn3C)c2C)cc1Cn1ccnc1CC1CCCCCC1` (stereo not drawn) [Example 146, 3-(3-((2-(Cycloheptylmethyl)-1H-imidazol-1-yl)methyl)-4-methylphenyl)-3-(1,4-dimethyl-1H-benzo[d][1,2,3]triazol-5-yl)propanoic acid, formic acid salt], for the setting “Homo sapiens, BEAS-2B, 48 h”, the EC50 lay within 10 to 100 nM. With `CCC1CCN(Cc2nccn2Cc2cc(C(CCc3cn(CC)nn3)C(C)C(=O)O)ccc2C)CC1` (single isomer, unassigned; isomer 1) [Example 225, 5-(1-Ethyl-1H-1,2,3-triazol-4-yl)-3-(3-((2-((4-ethylpiperidin-1-yl)methyl)-1H-imidazol-1-yl)methyl)-4-methylphenyl)-2-methylpentanoic Acid, Trifluoroacetic Acid Salt (Compound 9, Isomer 1,Scheme A)], the concentration giving a half-maximal response (EC50) (Homo sapiens, BEAS-2B, 48 h) lay in the range of 10 to 100 nM.

Regarding `CCC1CN(Cc2cc([C@H](c3ccc4c(nnn4C)c3C)C(C)C(=O)O)ccc2C)Cc2ccccc2O1` (stereo partly drawn) [Example 102, (3R)-3-(1,4-dimethyl-1H-benzo[d][1,2,3]triazol-5-yl)-3-(3-((2-ethyl-2,3-dihydrobenzo[f][1,4]oxazepin-4(5H)-yl)methyl)-4-methylphenyl)-2-methylpropanoic Acid], where the note is “Homo sapiens, BEAS-2B, 48 h”, the EC50 is less than 1 nM. Still for that read-out and setting: with `Cc1ccc(C(CC(=O)O)c2ccc3c(nnn3C)c2C)cc1Cn1nc(CC2CCCCC2)nc1C` (stereo not drawn) [Example 137, 3-(3-((3-(Cyclohexylmethyl)-5-methyl-1H-1,2,4-triazol-1-yl)methyl)-4-methylphenyl)-3-(1,4-dimethyl-1H-benzo[d][1,2,3]triazol-5-yl)propanoic Acid] the figure was 100 to 1000 nM; with `CC[C@@H]1CN(Cc2cc([C@@H](c3ccc4c(nnn4CC)c3F)[C@@H](C)C(=O)O)ccc2C)Cc2ncccc2O1` [Example 191, (2R,3S)-3-(3-(((R)-2-Ethyl-2,3-dihydropyrido[2,3-f][1,4]oxazepin-4(5H)-yl)methyl)-4-methylphenyl)-3-(1-ethyl-4-fluoro-1H-benzo[d][1,2,3]triazol-5-yl)-2-methylpropanoic acid], 1 to 10 nM; with `CC[C@@H]1CN(Cc2cc([C@@H](c3ccc4c(nnn4C)c3C)C(C)(C)C(=O)O)ccc2C)Cc2ncccc2O1` [Example 218, (S)-3-(1,4-Dimethyl-1H-benzo[d][1,2,3]triazol-5-yl)-3-(3-(((R)-2-ethyl-2,3-dihydropyrido[2,3-f][1,4]oxazepin-4(5H)-yl)methyl)-4-methylphenyl)-2,2-dimethylpropanoic Acid, Trifluoroacetate], 1 to 10 nM.
